Measurements: patent US20140005164A1, “WNT PATHWAY ANTAGONISTS” (Siena Biotech S.p.A., priority 2011, published 2014)

Legend:
[1] = system: Wnt/β-catenin pathway; experiment: Wnt reporter assay (TCF-Luciferase, Firefly) in DBTRG-05MG cells; format: cell-based; settings: Homo sapiens, TCF-Luciferase (Firefly) read out, 24 hours after compound addition, range given with mixed units nM and μM, read-out: IC50 value in the reporter assay
How it was run: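 DBTRG-05MG cells carrying a 3×(4×TCF)-driven Firefly luciferase reporter, with Renilla also read, were plated 36 h before an 8-point compound dilution series (0.6% DMSO). Lysis and Dual-Luciferase readout followed 24 h after compound addition. Firefly and Renilla were each expressed as % of control and fitted to a four-parameter sigmoid.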

[2] = system: DBTRG cells; experiment: Soft agar anchorage independent assay; format: cell-based; settings: 504 h; DBTRG colonies scored 3 weeks after plating; range over the listed examples, given with mixed units nM and μM
Protocol: DBTRG cells were seeded into a 24-well format in the presence of […] carrier alone or compound (0.6% DMSO (v/v)). Each well is composed of two agar layers: the bottom layer consists of 0.6% Agar while the top has 0.35% Agar plus cells and compound. Cells (2500 per well) were incubated with […] dilution compound the day of the plating and the colonies were scored 3 weeks later after o/n staining with MTT solution. Imaging and counting of the colonies was done with the GelCount™ instrument (Oxford Optronix, UK). For IC50 determination the data were expressed as % of control, values were calculated using XLFit version 4.2, with a four parameters sigmoid 5 function (XLFit model 205).

SMILES	IC50 [1]	IC50 [2]
COCCOc1ccc2c(c1)n(C[C@H]1CC[C@H](C(=O)Nc3ccncc3)CC1)c(=O)n2C [Example 72]	35 to 23000 nM	32 to 2900 nM
COc1ccc2c(c1)n(C[C@H]1CC[C@H](c3nnc(-c4cnn(C)c4)o3)CC1)c(=O)n2C [Example 106]	35 to 23000 nM	32 to 2900 nM
CC(=O)N1CCN(C(=O)[C@H]2CC[C@H](Cn3c(=O)n(C)c4ccc(C5CC5)cc43)CC2)CC1 [Example 68]	35 to 23000 nM	32 to 2900 nM
COCC#Cc1ccc2c(n1)n(C[C@H]1CC[C@H](C(=O)Nc3ccncc3)CC1)c(=O)n2C [Example 115]	35 to 23000 nM	32 to 2900 nM
COc1cc2c(cc1F)n(C)c(=O)n2C[C@H]1CC[C@H](C(=O)Nc2ccncc2)CC1 [Example 1, Trans-4-(5-Fluoro-6-Methoxy-3-methyl-2-oxo-2,3-dihydro-benzoimidazol-1-ylmethyl)-cyclohexanecarboxylic acid pyridine-4-ylamide]	35 to 23000 nM	32 to 2900 nM
C#Cc1ccc2c(c1)n(C[C@H]1CC[C@H](C(=O)N3CCN(C(C)=O)CC3)CC1)c(=O)n2C [Example 14, 3-[trans-4-(4-Acetyl-piperazine-1-carbonyl)-cyclohexylmethyl]-5-ethynyl-1-methyl-1,3-dihydro-benzoimidazol-2-one]	35 to 23000 nM	32 to 2900 nM
COCCOc1ccc2c(c1)n(C[C@H]1CC[C@H](C(=O)N3CCN(C(C)=O)CC3)CC1)c(=O)n2C [Example 71]	35 to 23000 nM	32 to 2900 nM
COc1ccc2c(c1)n(C[C@H]1CC[C@H](C(=O)N3C[C@@H](C)O[C@@H](C)C3)CC1)c(=O)n2C [Example 61]	35 to 23000 nM	32 to 2900 nM

The remaining lines, values ahead:

IC50 [1]	IC50 [2]	SMILES
35 to 23000 nM	32 to 2900 nM	COc1cc2c(cc1F)n(C)c(=O)n2C[C@H]1CC[C@H](C(=O)N2CCN(C(C)=O)CC2)CC1 [Example 161]
35 to 23000 nM	32 to 2900 nM	Cn1c(=O)n(C[C@H]2CC[C@H](C(=O)Nc3ccncc3)CC2)c2cc(OCCN3CCOCC3)ccc21 [Example 152]
35 to 23000 nM	32 to 2900 nM	COCCOc1cc2c(cc1F)n(C)c(=O)n2C[C@H]1CC[C@H](c2nnc(-c3cnn(C)c3)o2)CC1 [Example 185]
35 to 23000 nM	32 to 2900 nM	COCCOc1cc2c(cc1F)n(C)c(=O)n2C[C@H]1CC[C@H](C(=O)Nc2ccncc2)CC1 [Example 186]
35 to 23000 nM	32 to 2900 nM	COc1ccc2c(c1)n(C[C@H]1CC[C@H](c3cc(-c4cnn(C)c4)n[nH]3)CC1)c(=O)n2C [Example 153]
35 to 23000 nM	32 to 2900 nM	COc1cc2c(cc1F)n(C)c(=O)n2C[C@H]1CC[C@H](c2nnc(-c3cnn(C)c3)o2)CC1 [Example 182]
